This is an account of results in ChEMBL document CHEMBL1135089, “Nonpeptide alpha(v)beta(3) antagonists. Part 2: constrained glycyl amides derived from the RGD tripeptide” (Bioorg Med Chem Lett, 2002).

One assay concerns the target Integrin alpha-V/beta-3 (Homo sapiens, UniProt P05106+P06756). The assay can be described thus: Displacement of a non-peptide radioligand from human recombinant alphaV-beta3 integrin. It is filed as protein-complex assay.
The next assay is filed under the species Mus musculus. The assay can be described thus: The ability of compound to inhibit the transformation of osteoblast-like cells originally derived from mouse calvaria, into osteoclasts by OCFORM assay. It is filed as functional, cell-based.

Chain of Integrin alpha-V/beta-3 (P05106 27-788 limits assumed): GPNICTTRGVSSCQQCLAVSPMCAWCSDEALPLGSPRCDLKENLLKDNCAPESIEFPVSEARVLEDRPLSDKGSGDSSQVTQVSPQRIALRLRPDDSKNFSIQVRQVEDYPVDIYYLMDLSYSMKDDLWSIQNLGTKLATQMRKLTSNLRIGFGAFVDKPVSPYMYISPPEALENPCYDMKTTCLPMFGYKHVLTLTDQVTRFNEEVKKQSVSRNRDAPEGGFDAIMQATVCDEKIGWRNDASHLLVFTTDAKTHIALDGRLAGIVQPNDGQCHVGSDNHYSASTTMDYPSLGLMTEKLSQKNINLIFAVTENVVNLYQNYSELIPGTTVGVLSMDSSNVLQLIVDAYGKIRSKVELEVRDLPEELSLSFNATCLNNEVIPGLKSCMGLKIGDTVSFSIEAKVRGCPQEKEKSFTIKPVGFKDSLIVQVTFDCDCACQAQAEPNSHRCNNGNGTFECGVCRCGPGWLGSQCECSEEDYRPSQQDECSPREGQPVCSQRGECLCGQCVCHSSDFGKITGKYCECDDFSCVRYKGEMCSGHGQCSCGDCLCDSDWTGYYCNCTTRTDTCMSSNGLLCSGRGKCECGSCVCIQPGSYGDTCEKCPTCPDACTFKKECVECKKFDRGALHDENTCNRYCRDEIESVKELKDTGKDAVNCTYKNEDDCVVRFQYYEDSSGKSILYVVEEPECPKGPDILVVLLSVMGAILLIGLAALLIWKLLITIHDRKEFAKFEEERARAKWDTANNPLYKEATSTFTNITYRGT
Chain of Integrin alpha-V/beta-3 (P06756 31-889 limits assumed): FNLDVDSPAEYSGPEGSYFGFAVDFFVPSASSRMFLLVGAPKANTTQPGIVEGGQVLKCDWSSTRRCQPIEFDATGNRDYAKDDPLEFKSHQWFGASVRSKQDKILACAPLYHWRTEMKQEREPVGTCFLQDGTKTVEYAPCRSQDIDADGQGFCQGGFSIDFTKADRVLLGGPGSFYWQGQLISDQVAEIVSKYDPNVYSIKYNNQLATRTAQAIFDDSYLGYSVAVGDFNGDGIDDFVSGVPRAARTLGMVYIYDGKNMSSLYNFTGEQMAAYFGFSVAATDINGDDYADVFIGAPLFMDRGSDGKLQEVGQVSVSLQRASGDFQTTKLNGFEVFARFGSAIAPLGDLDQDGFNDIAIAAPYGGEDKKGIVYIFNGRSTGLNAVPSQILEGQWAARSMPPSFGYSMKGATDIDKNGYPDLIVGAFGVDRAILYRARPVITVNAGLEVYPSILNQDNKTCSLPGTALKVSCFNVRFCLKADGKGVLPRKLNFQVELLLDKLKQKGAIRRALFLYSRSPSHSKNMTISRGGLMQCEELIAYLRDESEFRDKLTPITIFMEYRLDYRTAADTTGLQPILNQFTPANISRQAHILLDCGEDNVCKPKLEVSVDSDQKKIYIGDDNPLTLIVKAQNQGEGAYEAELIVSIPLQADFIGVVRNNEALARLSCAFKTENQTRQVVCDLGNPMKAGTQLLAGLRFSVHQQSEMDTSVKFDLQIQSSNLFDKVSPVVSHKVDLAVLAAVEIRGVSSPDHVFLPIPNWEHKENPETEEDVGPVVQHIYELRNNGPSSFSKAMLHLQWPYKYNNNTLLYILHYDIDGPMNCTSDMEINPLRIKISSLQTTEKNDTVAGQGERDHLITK
Chain of Integrin alpha-V/beta-3 (P06756 891-1048 limits assumed): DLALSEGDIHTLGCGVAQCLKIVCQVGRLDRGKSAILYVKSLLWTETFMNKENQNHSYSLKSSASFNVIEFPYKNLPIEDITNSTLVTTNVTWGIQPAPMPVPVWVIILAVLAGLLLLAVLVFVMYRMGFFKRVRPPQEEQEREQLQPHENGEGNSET

`N=C(N)NCCC[C@H](N)C(=O)NCC(=O)N[C@@H](CC(=O)O)C(=O)O`: at Integrin alpha-V/beta-3, the IC50 is above 10000 nM.
As for `N=C(N)NCCCCC(=O)NCC(=O)NCCC(=O)O`, the IC50 at Integrin alpha-V/beta-3 was above 10000 nM.
Turning to `O=C(O)C[C@H](NC(=O)CN1CCN(CCc2ccc3c(n2)NCCC3)C1=O)c1cccnc1`, the values for the IC50 on Integrin alpha-V/beta-3 and in the assay filed under Mus musculus were 12 nM and above 1000 nM, respectively.
For `O=C(O)C[C@H](NC(=O)CN1CC[C@@H](CCc2ccc3c(n2)NCCC3)C1=O)c1cccnc1`, the IC50 on Integrin alpha-V/beta-3 turned out to be 0.94 nM; in the assay filed under Mus musculus, 79 nM.
Take `C#C[C@H](CC(=O)O)NC(=O)CN1CC[C@H](CCc2ccc3c(n2)NCCC3)C1=O`: the half-maximal inhibitory concentration (IC50) at Integrin alpha-V/beta-3 came out at 2.9 nM; in the assay filed under Mus musculus it was 150 nM.
Turning to `C#C[C@H](CC(=O)O)NC(=O)CNC(=O)CCCc1ccc2c(n1)NCCC2`, the IC50 at Integrin alpha-V/beta-3 worked out at 8.8 nM.
Consider `O=C(O)C[C@H](NC(=O)CN1CCCC(CCc2ccc3c(n2)NCCC3)C1=O)c1cccnc1` (some centres undefined), for which the values for the concentration for half-maximal inhibition (IC50) on Integrin alpha-V/beta-3 and in the assay filed under Mus musculus were 1.2 nM and 480 nM, respectively.
In the case of `O=C(O)C[C@H](NC(=O)CNC(=O)CCCc1ccc2c(n1)NCCC2)c1cccnc1`, on Integrin alpha-V/beta-3, the 50% inhibitory concentration (IC50) is 1.3 nM.
Same read-out and setting: the same measure for `O=C(O)CCNC(=O)CNC(=O)CCCc1ccc2c(n1)NCCC2`: 111 nM.
In the assay filed under Mus musculus, `O=C(O)C[C@H](NC(=O)CN1CC[C@H](CCc2ccc3c(n2)NCCC3)C1=O)c1cccnc1` yielded a concentration for half-maximal inhibition (IC50) of 62 nM.

As usually defined, the IC50 is the concentration that inhibits the measured activity by half.
